Where two headings read alike, the source gives them in different places.
Key:
[1] = Ferric reducing antioxidant power (FRAP) assay; conditions: for FRAP: mean ± standard error of three experiments;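 for FRAP: expressed as µM Fe2+ equivalents from an FeSO4·7H2O standard curve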
In short: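 Ferric-TPTZ reduction measured by absorbance at 593 nm after 60 min at 37 °C in pH 3.6 acetate-buffered TPTZ/FeCl3 reagent, with test compounds at 10 and 100 µM. FRAP values calculated from an Fe2SO4·7H2O standard curve. Data from three independent experiments.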

recombinant human AChE = target: T1, recombinant human AChE (Homo sapiens, UniProt P22303); assay: biochemical; assay type: biochemical; conditions: for IS: IS = Ki(BChE)/Ki(AChE), IS > 1 selective to AChE
T1 construct: gift of Dr Florian Nachon (Armed Forces Biomedical Research Institute, Brétigny-sur-Orge, France)
In short: (§1)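 Modified Ellman assay with acetylthiocholine and DTNB in 0.1 M sodium phosphate pH 7.4 (enzymes diluted with 0.1% BSA), ≤0.2% DMSO, 25 °C. At least three inhibitor concentrations per substrate level; Ki,app from Hunter–Downs equation, Ki from y-intercept and inhibition type from Ki,app vs [S].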

purified human BChE = target: T2, purified human BChE (Homo sapiens, UniProt P06276); assay: biochemical; assay type: biochemical
T2 construct: possibly also a gift of Dr Florian Nachon (the sentence is ambiguous)
In short: as §1

[2] = Reverse-phase thin-layer chromatographic lipophilicity (RF, RM0); assay type: physicochemical; conditions: for RM0: intercept of RM = RM0 + bC; for b: slope of RM = RM0 + bC; for RF, Methanol/Water/Hydrochloric acid (conc.), mobile phase I / RF, Dioxane/Water/Hydrochloric acid (conc.), mobile phase II / RF, Methanol/Water/Hydrochloric acid (conc.), mobile phase II / RF, Acetone/Water/Hydrochloric acid (conc.), mobile phase III / RF, Dioxane/Water/Hydrochloric acid (conc.), mobile phase III / RF, Methanol/Water/Hydrochloric acid (conc.), mobile phase III / RF, Dioxane/Water/Hydrochloric acid (conc.), mobile phase IV / RF, Acetone/Water/Hydrochloric acid (conc.), mobile phase IV / RF, Methanol/Water/Hydrochloric acid (conc.), mobile phase IV / RF, Acetone/Water/Hydrochloric acid (conc.), mobile phase IX / RF, Methanol/Water/Hydrochloric acid (conc.), mobile phase IX / RF, Dioxane/Water/Hydrochloric acid (conc.), mobile phase V / RF, Acetone/Water/Hydrochloric acid (conc.), mobile phase V / RF, Methanol/Water/Hydrochloric acid (conc.), mobile phase V / RF, Dioxane/Water/Hydrochloric acid (conc.), mobile phase VI / RF, Acetone/Water/Hydrochloric acid (conc.), mobile phase VI / RF, Methanol/Water/Hydrochloric acid (conc.), mobile phase VI / RF, Acetone/Water/Hydrochloric acid (conc.), mobile phase VII / RF, Methanol/Water/Hydrochloric acid (conc.), mobile phase VII / RF, Acetone/Water/Hydrochloric acid (conc.), mobile phase VIII / RF, Methanol/Water/Hydrochloric acid (conc.), mobile phase VIII: RP-18 silica; for RF, Methanol/Water/Hydrochloric acid (conc.), mobile phase I: I = 90%MeOH/5%H2O/5%HCl; for RF, Dioxane/Water/Hydrochloric acid (conc.), mobile phase II: II = 80%Dioxane/15%H2O/5%HCl; for RF, Methanol/Water/Hydrochloric acid (conc.), mobile phase II: II = 85%MeOH/10%H2O/5%HCl; for RF, Acetone/Water/Hydrochloric acid (conc.), mobile phase III: III = 70%AC/25%H2O/5%HCl; for RF, Dioxane/Water/Hydrochloric acid (conc.), mobile phase III: III = 70%Dioxane/25%H2O/5%HCl; for RF, Methanol/Water/Hydrochloric acid (conc.), mobile phase III: III = 80%MeOH/15%H2O/5%HCl; for RF, Dioxane/Water/Hydrochloric acid (conc.), mobile phase IV: IV = 60%Dioxane/35%H2O/5%HCl; for RF, Acetone/Water/Hydrochloric acid (conc.), mobile phase IV: IV = 65%AC/30%H2O/5%HCl; for RF, Methanol/Water/Hydrochloric acid (conc.), mobile phase IV: IV = 75%MeOH/20%H2O/5%HCl; for RF, Acetone/Water/Hydrochloric acid (conc.), mobile phase IX: IX = 40%AC/55%H2O/5%HCl; for RF, Methanol/Water/Hydrochloric acid (conc.), mobile phase IX: IX = 50%MeOH/45%H2O/5%HCl; for RF, Dioxane/Water/Hydrochloric acid (conc.), mobile phase V: V = 50%Dioxane/45%H2O/5%HCl; for RF, Acetone/Water/Hydrochloric acid (conc.), mobile phase V: V = 60%AC/35%H2O/5%HCl; for RF, Methanol/Water/Hydrochloric acid (conc.), mobile phase V: V = 70%MeOH/25%H2O/5%HCl; for RF, Dioxane/Water/Hydrochloric acid (conc.), mobile phase VI: VI = 40%Dioxane/55%H2O/5%HCl; for RF, Acetone/Water/Hydrochloric acid (conc.), mobile phase VI: VI = 55%AC/40%H2O/5%HCl; for RF, Methanol/Water/Hydrochloric acid (conc.), mobile phase VI: VI = 65%MeOH/30%H2O/5%HCl; for RF, Acetone/Water/Hydrochloric acid (conc.), mobile phase VII: VII = 50%AC/45%H2O/5%HCl; for RF, Methanol/Water/Hydrochloric acid (conc.), mobile phase VII: VII = 60%MeOH/35%H2O/5%HCl; for RF, Acetone/Water/Hydrochloric acid (conc.), mobile phase VIII: VIII = 45%AC/50%H2O/5%HCl; for RF, Methanol/Water/Hydrochloric acid (conc.), mobile phase VIII: VIII = 55%MeOH/40%H2O/5%HCl
In short: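 Lipophilicity from RP-TLC retention at 22±2 °C over a 4.5 cm development distance. Eluents: organic modifier (methanol, acetone or dioxane), water and hydrochloric acid, methanol stepped by 10%. RM0 obtained from RF.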

[3] = log (Ki/µM AChE), read-out: Y Measured 1 log(ki)Ache (converted)
[4] = ± standard error, 25 °C, ATCh substrate, read-out: Ki AChE
[5] = logarithm of Ki in µM, BChE, dependent variable of the QSAR model, read-out: Y Measured 2 log(ki)Bche, log (Ki/µM BChE) (converted)
[6] = ± standard error, 25 °C, ATCh substrate, read-out: Ki BChE
[7] = Acetone/Water/Hydrochloric acid (conc.)
[8] = Dioxane/Water/Hydrochloric acid (conc.)
[9] = Methanol/Water/Hydrochloric acid (conc.)

T1 sequence (P22303 32-614): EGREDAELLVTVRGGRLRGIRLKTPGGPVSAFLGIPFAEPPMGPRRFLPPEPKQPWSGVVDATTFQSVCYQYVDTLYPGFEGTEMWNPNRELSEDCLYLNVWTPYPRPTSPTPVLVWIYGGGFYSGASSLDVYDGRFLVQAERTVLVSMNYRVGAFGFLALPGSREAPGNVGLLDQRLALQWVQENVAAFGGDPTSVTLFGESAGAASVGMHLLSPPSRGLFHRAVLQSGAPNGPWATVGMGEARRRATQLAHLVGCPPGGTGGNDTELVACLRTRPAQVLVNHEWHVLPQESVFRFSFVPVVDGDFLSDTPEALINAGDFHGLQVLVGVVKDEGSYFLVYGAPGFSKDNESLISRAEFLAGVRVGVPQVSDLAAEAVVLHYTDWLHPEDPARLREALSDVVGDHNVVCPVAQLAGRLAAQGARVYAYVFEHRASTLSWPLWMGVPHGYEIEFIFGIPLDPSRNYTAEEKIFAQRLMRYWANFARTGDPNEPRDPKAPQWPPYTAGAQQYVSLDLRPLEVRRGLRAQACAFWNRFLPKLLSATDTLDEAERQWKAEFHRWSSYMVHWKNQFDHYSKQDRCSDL
T2 sequence (P06276 29-602): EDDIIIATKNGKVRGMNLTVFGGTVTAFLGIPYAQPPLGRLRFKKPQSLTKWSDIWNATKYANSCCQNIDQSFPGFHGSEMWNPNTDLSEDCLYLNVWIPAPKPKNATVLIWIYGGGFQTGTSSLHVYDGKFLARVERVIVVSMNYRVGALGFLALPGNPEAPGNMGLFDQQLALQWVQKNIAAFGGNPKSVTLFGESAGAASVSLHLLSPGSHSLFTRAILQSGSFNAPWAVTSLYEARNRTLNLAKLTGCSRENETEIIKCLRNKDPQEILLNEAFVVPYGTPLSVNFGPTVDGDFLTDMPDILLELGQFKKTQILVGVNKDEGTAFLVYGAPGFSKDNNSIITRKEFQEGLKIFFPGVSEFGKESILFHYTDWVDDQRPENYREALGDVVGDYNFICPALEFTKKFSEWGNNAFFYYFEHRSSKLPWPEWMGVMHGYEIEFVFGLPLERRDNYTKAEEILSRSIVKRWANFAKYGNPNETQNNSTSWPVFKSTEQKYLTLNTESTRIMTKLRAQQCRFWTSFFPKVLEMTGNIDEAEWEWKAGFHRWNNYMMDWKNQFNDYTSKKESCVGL

Structure (SMILES) | FRAP ([1]; 10 µM compound) | FRAP ([1]; 100 µM compound) | IS (recombinant human AChE) | Ki (recombinant human AChE; [3]) | Ki (recombinant human AChE; [4]) | Ki (purified human BChE; [5]) | Ki (purified human BChE; [6]) | RM0 [2, 7] | b [2, 7] | RM0 [2, 8] | b [2, 8] | RM0 [2, 9] | b [2, 9] | RF, Methanol/Water/Hydrochloric acid (conc.), mobile phase I [2] | RF, Dioxane/Water/Hydrochloric acid (conc.), mobile phase II [2] | RF, Methanol/Water/Hydrochloric acid (conc.), mobile phase II [2] | RF, Acetone/Water/Hydrochloric acid (conc.), mobile phase III [2] | RF, Dioxane/Water/Hydrochloric acid (conc.), mobile phase III [2] | RF, Methanol/Water/Hydrochloric acid (conc.), mobile phase III [2] | RF, Dioxane/Water/Hydrochloric acid (conc.), mobile phase IV [2] | further results
Clc1ccc2c(NCCCCCCCCNCC34CC5CC(CC(C5)C3)C4)ccnc2c1 [Compound 5] | 9.5 ± 1.9 µM | 82 ± 4 µM | 1.2 | 0.0759 µM | 0.075 ± 0.06 µM | 0.0912 µM | 0.091 ± 0.007 µM | 2.706 | 4.173 | 1.151 | 2.214 | 3.7376 | 4.663 | 0.67 | 0.78 | 0.62 | 0.55 | 0.7 | 0.42 | 0.7 | less potent AChE inhibitor than donepezil and tacrine (recombinant human AChE): 2 to 3 times; increase in AChE inhibition potency (recombinant human AChE; n-octylene spacer vs unbranched compounds with shorter spacer): about 12 times; increase in BChE inhibition vs compounds 3 and 4 (purified human BChE): about 9 times; more potent BChE inhibitor than galantamine (purified human BChE; comparator ref [63]): 12 times; RF, Acetone/Water/Hydrochloric acid (conc.), mobile phase IV [2]: 0.49; RF, Methanol/Water/Hydrochloric acid (conc.), mobile phase IV [2]: 0.44; RF, Acetone/Water/Hydrochloric acid (conc.), mobile phase IX [2]: 0.04; RF, Methanol/Water/Hydrochloric acid (conc.), mobile phase IX [2]: 0.02; RF, Dioxane/Water/Hydrochloric acid (conc.), mobile phase V [2]: 0.47; RF, Acetone/Water/Hydrochloric acid (conc.), mobile phase V [2]: 0.39; RF, Methanol/Water/Hydrochloric acid (conc.), mobile phase V [2]: 0.34; RF, Dioxane/Water/Hydrochloric acid (conc.), mobile phase VI [2]: 0.31; RF, Acetone/Water/Hydrochloric acid (conc.), mobile phase VI [2]: 0.32; RF, Methanol/Water/Hydrochloric acid (conc.), mobile phase VI [2]: 0.23; RF, Acetone/Water/Hydrochloric acid (conc.), mobile phase VII [2]: 0.28; RF, Methanol/Water/Hydrochloric acid (conc.), mobile phase VII [2]: 0.11; RF, Acetone/Water/Hydrochloric acid (conc.), mobile phase VIII [2]: 0.19; RF, Methanol/Water/Hydrochloric acid (conc.), mobile phase VIII [2]: 0.07
Clc1ccc2c(NCCCCCCNCC34CC5CC(CC(C5)C3)C4)ccnc2c1 [Compound 4] | 1.9 ± 0.5 µM | 58 ± 10 µM | 1.1 | 0.67 µM | 0.67 ± 0.02 µM | 0.76 µM | 0.76 ± 0.06 µM | 2.036 | 3.254 | 0.9103 | 1.922 | 2.899 | 3.742 | 0.72 | 0.78 | 0.66 | 0.6 | 0.73 | 0.47 | 0.72 | RF, Acetone/Water/Hydrochloric acid (conc.), mobile phase IV [2]: 0.55; RF, Methanol/Water/Hydrochloric acid (conc.), mobile phase IV [2]: 0.49; RF, Acetone/Water/Hydrochloric acid (conc.), mobile phase IX [2]: 0.11; RF, Methanol/Water/Hydrochloric acid (conc.), mobile phase IX [2]: 0.06; RF, Dioxane/Water/Hydrochloric acid (conc.), mobile phase V [2]: 0.52; RF, Acetone/Water/Hydrochloric acid (conc.), mobile phase V [2]: 0.45; RF, Methanol/Water/Hydrochloric acid (conc.), mobile phase V [2]: 0.4; RF, Dioxane/Water/Hydrochloric acid (conc.), mobile phase VI [2]: 0.38; RF, Acetone/Water/Hydrochloric acid (conc.), mobile phase VI [2]: 0.37; RF, Methanol/Water/Hydrochloric acid (conc.), mobile phase VI [2]: 0.31; RF, Acetone/Water/Hydrochloric acid (conc.), mobile phase VII [2]: 0.33; RF, Methanol/Water/Hydrochloric acid (conc.), mobile phase VII [2]: 0.2; RF, Acetone/Water/Hydrochloric acid (conc.), mobile phase VIII [2]: 0.26; RF, Methanol/Water/Hydrochloric acid (conc.), mobile phase VIII [2]: 0.13
Clc1ccc2c(Nc3ccc(NCC45CC6CC(CC(C6)C4)C5)cc3)ccnc2c1 [Compound 17] | 53 ± 4 µM | 512 ± 117 µM | 0.8 | 3.3 µM | 3.3 ± 0.4 µM | 2.5 µM | 2.5 ± 0.5 µM | 2.018 | 3.21 | 0.9452 | 1.898 | 2.643 | 3.504 | 0.73 | 0.75 | 0.69 | 0.59 | 0.71 | 0.54 | 0.71 | antioxidant power lower than that of Trolox ([1]; on average): ~10 times; decrease in BChE inhibition vs compound 5 (purified human BChE): up to 275 times; RF, Acetone/Water/Hydrochloric acid (conc.), mobile phase IV [2]: 0.54; RF, Methanol/Water/Hydrochloric acid (conc.), mobile phase IV [2]: 0.53; RF, Acetone/Water/Hydrochloric acid (conc.), mobile phase IX [2]: 0.11; RF, Methanol/Water/Hydrochloric acid (conc.), mobile phase IX [2]: 0.09; RF, Dioxane/Water/Hydrochloric acid (conc.), mobile phase V [2]: 0.49; RF, Acetone/Water/Hydrochloric acid (conc.), mobile phase V [2]: 0.44; RF, Methanol/Water/Hydrochloric acid (conc.), mobile phase V [2]: 0.45; RF, Dioxane/Water/Hydrochloric acid (conc.), mobile phase VI [2]: 0.35; RF, Acetone/Water/Hydrochloric acid (conc.), mobile phase VI [2]: 0.39; RF, Methanol/Water/Hydrochloric acid (conc.), mobile phase VI [2]: 0.35; RF, Acetone/Water/Hydrochloric acid (conc.), mobile phase VII [2]: 0.33; RF, Methanol/Water/Hydrochloric acid (conc.), mobile phase VII [2]: 0.24; RF, Acetone/Water/Hydrochloric acid (conc.), mobile phase VIII [2]: 0.25; RF, Methanol/Water/Hydrochloric acid (conc.), mobile phase VIII [2]: 0.15
Clc1ccc2c(NCCCN3CCN(CCCNCC45CC6CC(CC(C6)C4)C5)CC3)ccnc2c1 [Compound 22] | 11 ± 3 µM | 34 ± 8 µM | 4.8 | 0.69 µM | 0.69 ± 0.02 µM | 3.3 µM | 3.3 ± 0.2 µM | 1.4989 | 2.763 | 0.5478 | 1.493 | 1.56 | 2.199 | 0.67 | 0.78 | 0.7 | 0.71 | 0.76 | 0.6 | 0.78 | RF, Acetone/Water/Hydrochloric acid (conc.), mobile phase IV [2]: 0.68; RF, Methanol/Water/Hydrochloric acid (conc.), mobile phase IV [2]: 0.59; RF, Acetone/Water/Hydrochloric acid (conc.), mobile phase IX [2]: 0.28; RF, Methanol/Water/Hydrochloric acid (conc.), mobile phase IX [2]: 0.22; RF, Dioxane/Water/Hydrochloric acid (conc.), mobile phase V [2]: 0.6; RF, Acetone/Water/Hydrochloric acid (conc.), mobile phase V [2]: 0.61; RF, Methanol/Water/Hydrochloric acid (conc.), mobile phase V [2]: 0.5; RF, Dioxane/Water/Hydrochloric acid (conc.), mobile phase VI [2]: 0.48; RF, Acetone/Water/Hydrochloric acid (conc.), mobile phase VI [2]: 0.51; RF, Methanol/Water/Hydrochloric acid (conc.), mobile phase VI [2]: 0.45; RF, Acetone/Water/Hydrochloric acid (conc.), mobile phase VII [2]: 0.43; RF, Methanol/Water/Hydrochloric acid (conc.), mobile phase VII [2]: 0.38; RF, Acetone/Water/Hydrochloric acid (conc.), mobile phase VIII [2]: 0.36; RF, Methanol/Water/Hydrochloric acid (conc.), mobile phase VIII [2]: 0.31

Source: publication PMC9229919, “4-Aminoquinoline-Based Adamantanes as Potential Anticholinesterase Agents in Symptomatic Treatment of Alzheimer’s Disease” (Pharmaceutics, 2022)
